Legend:
Phakopsora Pachyrhizi = test: Fungicidal activity against Phakopsora pachyrhizi / soybean / leaf disc preventative (Asian soybean rust); assay type: in vivo; settings: foliar, 200 ppm in the applied formulation, soybean leaf disks, compared to untreated control leaf disks, read-out: disease control
Outline: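 Scored 12 to 14 days post-application as percent control relative to untreated check discs, rust spores were sprayed under the disc one day after compound treatment. Incubation: 20°C, 75% rh, first 24–36 h in darkness, then 12 h daily light; discs kept on water agar.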

[1] = test system: Glomerella lagenarium (Colletotrichum lagenarium); test: Fungicidal activity against Glomerella lagenarium (Colletotrichum lagenarium) liquid culture / cucumber / preventative (anthracnose); assay type: cell-based; settings: Colletotrichum orbiculare; 20 ppm in the applied formulation; liquid culture (PDB), growth inhibition measured photometrically after 3 to 4 days; compared to untreated control; read-out: disease control
Outline: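 Percent activity against the untreated check was derived from photometric growth measurements made 2 to 7 days after conidia in potato dextrose broth were combined with compound at 20 ppm. Cultures were kept dark at 24 °C and 96% humidity.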

[2] = test system: Puccinia recondita f. Sp. Tritici; test: Fungicidal activity against Puccinia recondita f. sp. tritici / wheat / leaf disc preventative (brown rust); assay type: in vivo; settings: foliar, 200 ppm in the applied formulation, wheat leaf segments, preventative, compared to untreated control leaf disks, read-out: disease control
Outline: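 200 ppm spray on wheat cv. Kanzler leaf segments; spore inoculation +1 day; 19° C., 75% rh, 12 h/12 h light cycle; single rating of % control vs untreated at 7 to 9 days.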

O=C(C1CC1F)N(Cc1ccc(-c2noc(C(F)(F)F)n2)cc1)Cc1ccco1 (stereo not drawn) [Compound 1.471, 2-fluoro-N-(2-furylmethyl)-N-[[4-(5-(trifluoromethyl)-1,2,4-oxadiazol-3-yl]phenyl]methyl]-cyclopropane-carboxamide]
≥ 80%: pest or weed control at 200 ppm (Phakopsora Pachyrhizi) | inhibition of growth at 20 ppm [1] | pest or weed control at 200 ppm [2]

C=CCN(Cc1ccc(-c2noc(C(F)(F)F)n2)cc1)C(=O)C1CCCC1 [Compound 1.475, N-allyl-N-[[4-[5-(trifluoromethyl)-1,2,4-oxadiazol-3-yl]phenyl]methyl]-cyclopentane-carboxamide]
≥ 80%: pest or weed control at 200 ppm (Phakopsora Pachyrhizi) | inhibition of growth at 20 ppm [1] | pest or weed control at 200 ppm [2]

CCON(Cc1ccc(-c2noc(C(F)(F)F)n2)cc1)C(=O)CC [Compound 1.562, N-ethoxy-N-[[4-[5-(trifiuoromethyl)-1,2,4-oxadiazol-3-yl]phenyl]methyl]-propanamide]
≥ 80%: pest or weed control at 200 ppm (Phakopsora Pachyrhizi) | inhibition of growth at 20 ppm [1] | pest or weed control at 200 ppm [2]

CON(Cc1ccc(-c2noc(C(F)(F)F)n2)c(F)c1F)C(=O)c1ccccc1Cl [Compound 1.576, 2-chloro-N-[[2,3-difluoro-4-[5-(trifluoromethyl)-1,2,4-oxadiazol-3-yl]phenyl]methyl]-N-methoxy-benzamide]
≥ 80%: pest or weed control at 200 ppm (Phakopsora Pachyrhizi) | inhibition of growth at 20 ppm [1] | pest or weed control at 200 ppm [2]

CCON(Cc1ccc(-c2noc(C(F)(F)F)n2)cc1)C(=O)C1CCC1 [Compound 1.619, N-ethoxy-N-[[4-[5-(trifluoromethyl)-1,2,4-oxadiazol-3-yl]phenyl]methyl]-cyclobutane-carboxamide]
≥ 80%: pest or weed control at 200 ppm (Phakopsora Pachyrhizi) | inhibition of growth at 20 ppm [1] | pest or weed control at 200 ppm [2]

CCON(Cc1ccc(-c2noc(C(F)(F)F)n2)cc1)C(=O)CC#N [Compound 1.627, 2-cyano-N-ethoxy-N-[[4-[5-(trifluoromethyl)-1,2,4-oxadiazol-3-yl)phenyl]methyl]-acetamide]
≥ 80%: pest or weed control at 200 ppm (Phakopsora Pachyrhizi) | inhibition of growth at 20 ppm [1] | pest or weed control at 200 ppm [2]

CCON(Cc1ccc(-c2noc(C(F)(F)F)n2)cc1)C(=O)C1(C#N)CC1 [Compound 1.628, 1-cyano-N-ethoxy-N-[[4-[5-(trifluoromethyl)-1,2,4-oxadiazol-3-yl]phenyl]methyl]-cyclopropane-carboxamide]
≥ 80%: pest or weed control at 200 ppm (Phakopsora Pachyrhizi) | inhibition of growth at 20 ppm [1] | pest or weed control at 200 ppm [2]

CCCCON(Cc1ccc(-c2noc(C(F)(F)F)n2)cc1)C(=O)C1CCOC1 (stereo not drawn) [Compound 1.636, N-butoxy-N-[[4-[5-(trifluoromethyl)-1,2,4-oxadiazol-3-yl]phenyl]methyl]-tetrahydrofuran-3-carboxamide]
≥ 80%: pest or weed control at 200 ppm (Phakopsora Pachyrhizi) | inhibition of growth at 20 ppm [1] | pest or weed control at 200 ppm [2]

CCCCON(Cc1ccc(-c2noc(C(F)(F)F)n2)cc1)C(=O)C(C)OC (stereo not drawn) [Compound 1.647, N-butoxy-2-methoxy-N-[[4-[5-(trifluoromethyl)-1,2,4-oxadiazol-3-yl]phenyl]methyl]-propanamide]
≥ 80%: pest or weed control at 200 ppm (Phakopsora Pachyrhizi) | inhibition of growth at 20 ppm [1] | pest or weed control at 200 ppm [2]

CC(C)N(Cc1ccc(-c2noc(C(F)(F)F)n2)cc1)C(=O)c1ccccc1Cl [Compound 1.672, 2-chloro-N-isopropyl-N-[[4-[5-(trifluoromethyl)-1,2,4-oxadiazol-3-yl]phenyl]methyl]-benzamide]
≥ 80%: pest or weed control at 200 ppm (Phakopsora Pachyrhizi) | inhibition of growth at 20 ppm [1] | pest or weed control at 200 ppm [2]

O=C(CC(F)(F)F)N(Cc1ccc(-c2noc(C(F)(F)F)n2)cc1)CC(F)(F)F [Compound 1.704, 3,3,3-trifluoro-N-(2,2,2-trifluoroethyl)-N-[[4-[5-(trifluoromethyl)-1,2,4-oxadiazol-3-yl]phenyl]methyl]-propanamide]
≥ 80%: pest or weed control at 200 ppm (Phakopsora Pachyrhizi) | inhibition of growth at 20 ppm [1] | pest or weed control at 200 ppm [2]

— patent publication US11180462B2, “Microbiocidal oxadiazole derivatives” (SYNGENTA PARTICIPATIONS AG, priority 2015, dated 2021)
